Tested on: MC38 mouse colon cancer cells
Test: Tumor suppressive efficacy in combination with other TLR ligands or saponin, colon cancer mouse model
Assay type: in vivo, C57BL/6 mice
Conditions: L-pampo 45 μg/dose, QS21 10 μg/dose, Imiquimod 10 μg/dose, intratumoral four times at 3-day intervals, D20, 12 days after start
Procedure: Tumors were generated in mice by subcutaneous injection of 1×10^5 MC38 mouse colon cancer cells into the right flank of 8-week-old female C57BL/6 mice (OrientBio, Korea). The immuno-oncology drug L-pampo was prepared by mixing 25 μg of Pam3CSK4 and 20 μg of poly(I:C). […] This was administered into the tumor four times at 3-day intervals. Tumor sizes for all experimental groups were measured every three days. The long and short axes of the tumor were measured, and the size of the tumor was calculated as [½×size of the long axis×(size of the short axis)^2]. The tumor suppressive efficacy was analyzed based on the calculated tumor size.

Compound | size of the tumor reduced compared to negative control (buffer)
CC(C)Cn1cnc2c(N)nc3ccccc3c21 [imiquimod] | about 39%
QS-21 | about 57%

From patent US20240277754A1, “IMMUNO-ONCOLOGY THERAPEUTIC COMPOSITION USING ADJUVANT INCLUDING LIPOPEPTIDES AND POLY (I:C)” (CHA VACCINE RESEARCH INSTITUTE CO., LTD, priority 2021, published 2024)
